Values of other authors, collected in paper PMC9240354, “Pharmacokinetics, Pharmacodynamics and Antiviral Efficacy of the MEK Inhibitor Zapnometinib in Animal Models and in Humans” (Frontiers in Pharmacology, 2022).

Assays:
MEK = system: MEK; parameters: method as in Yang et al., 2010; conditions: single application, LOX melanoma tumor xenograft model; ref Yang et al., 2010; cited from earlier work
ERK phosphorylation = system: ERK phosphorylation; parameters: method as in Gilmartin et al., 2011; conditions: mouse tumor xenograft model; ref Gilmartin et al., 2011; cited from earlier work

CCCS(=O)(=O)Nc1ccc(F)c(C(=O)c2c[nH]c3ncc(-c4ccc(Cl)cc4)cc23)c1F [RG7204]
MEK inhibition with decreasing plasma concentration (MEK): remained at a relatively constant value up to 8 h post dose

CC(=O)Nc1cccc(-n2c(=O)n(C3CC3)c(=O)c3c(Nc4ccc(I)cc4F)n(C)c(=O)c(C)c32)c1 [trametinib]
inhibition of ERK phosphorylation in vivo (ERK phosphorylation): sustained inhibition of ERK phosphorylation
